Values quoted from earlier work as cited in patent publication US12447174B2, “Microdaily EMF protects against oxidative and inflammatory damage, and acute and late adverse effects of EMF radiation” (priority 2021, dated 2025).
“Also recorded” adds a separate entry of the source.

What was measured:
[1] = system: microglia cells in culture
male heavy smokers = settings: beta-carotene alone
[2] = system: hippocampus and cerebellum of rats; settings: RF-EMF 900 MHz 60 min/day for 21 days
[3] = system: rats exposed to 900 MHz radiation; settings: compared to EMF irradiated animals not receiving luteolin
kidney of rats = settings: 900 MHz
hippocampus of rats = settings: prenatal exposure to 900 MHz EMF radiation
N9 microglia cells = N9 microglia cells in culture
[4] = system: workers chronically exposed to ELF-EMF radiation from high voltage electricity
[5] = system: Human embryonic kidney cells (HEK293); settings: HEK293, 2.4 GHz for 1 h, treatment before exposure
[6] = system: patients with Alzheimer's disease
heart disease = settings: humans
porcine blood platelets = settings: 1 KHz, 220 V/m, 30 and 60 minutes
rats = settings: EMF radiation emitted from mobile phones, supplementation

COc1cc(/C=C/C(=O)CC(=O)/C=C/c2ccc(O)c(OC)c2)ccc1O [Curcumin]
EMF-induced elevation of pro-inflammatory cytokines [1]: prevented | EMF-induced reduced phagocytic activity [1]: prevented

CC1=C(/C=C/C(C)=C/C=C/C(C)=C/C=C/C=C(C)/C=C/C=C(C)/C=C/C2=C(C)CCCC2(C)C)C(C)(C)CCC1 [beta-carotene]
risk of lung cancer (male heavy smokers): increased the risk of lung cancer

Nc1nc2ncc(CNc3ccc(C(=O)N[C@@H](CCC(=O)O)C(=O)O)cc3)nc2c(=O)[nH]1 [folic acid]
reduction in pyramidal and granular cells in hippocampus and dentate gyres and Purkinje cell number in cerebellum [2]: decreased these changes

O=c1cc(-c2ccc(O)c(O)c2)oc2cc(O)cc(O)c12 [luteolin]
numbers of Leydig cells, primary spermatocytes, and spermatids [3]: enhanced the number of these cells

COc1ccc2[nH]cc(CCNC(C)=O)c2c1 [melatonin]
EMF radiation induced oxidative damage in the kidney (kidney of rats): prevented | EMF radiation-induced neuronal damage in the hippocampus (hippocampus of rats): prevented EMF radiation-induced neuronal damage

CC(C)(C)c1nc2c3cc[nH]c(=O)c3c3cc(F)ccc3c2[nH]1 [pyridone 6]
EMF radiation induced inflammatory responses (N9 microglia cells): suppressed EMF radiation induced inflammatory responses

Oc1ccc(C=Cc2cc(O)cc(O)c2)cc1 [resveratrol]
increased oxidative stress (damage) from ELF-EMF radiation [4]: reduced this damage

[Se] [selenium]
EMF radiation-induced biochemical changes (MDA, SOD, glutathione peroxidase, apoptosis, caspase-3, Bcl2) [5]: reduced such EMF radiation-induced biochemical changes

Vitamin E
rate of decline in cognitive function ([6]; early phase of Alzheimer's disease): reduced the rate of decline in cognitive function | treatment effect in Alzheimer's disease ([6]; patients with Alzheimer's disease): ineffective | effect in heart disease on primary and most secondary outcomes (heart disease): ineffective

omega-3-fatty acids
EMF radiation-induced neuronal damage in the hippocampus (hippocampus of rats): prevented EMF radiation-induced neuronal damage

vitamin A
EMF-induced increase in malondialdehyde (MDA) levels (porcine blood platelets): significantly attenuated such changes; also recorded: significantly attenuated this damage

vitamin D
EMF radiation impaired immune function (rats): mitigated
